This is an account of results in patent publication US20200239530A1, “COMPOUNDS AND METHODS OF MODULATING PROTEIN DEGRADATION” (Vividion Therapeutics, Inc., priority 2017, published 2020).

SMILES strings stand for the structures. Like-named read-outs stand apart in the source and are kept apart here.

Test in all cases: Cysteine liganding, probe competition
Common to all, as to type: binding

One test deals with T1, UniProt O60260 (Homo sapiens, UniProt O60260).
T1 construct: 200 μL of lysate containing 5 mg/ml proteome was treated with 2 μL of 100× compound stock; endogenous in cells
T1 sequence (O60260 1-465): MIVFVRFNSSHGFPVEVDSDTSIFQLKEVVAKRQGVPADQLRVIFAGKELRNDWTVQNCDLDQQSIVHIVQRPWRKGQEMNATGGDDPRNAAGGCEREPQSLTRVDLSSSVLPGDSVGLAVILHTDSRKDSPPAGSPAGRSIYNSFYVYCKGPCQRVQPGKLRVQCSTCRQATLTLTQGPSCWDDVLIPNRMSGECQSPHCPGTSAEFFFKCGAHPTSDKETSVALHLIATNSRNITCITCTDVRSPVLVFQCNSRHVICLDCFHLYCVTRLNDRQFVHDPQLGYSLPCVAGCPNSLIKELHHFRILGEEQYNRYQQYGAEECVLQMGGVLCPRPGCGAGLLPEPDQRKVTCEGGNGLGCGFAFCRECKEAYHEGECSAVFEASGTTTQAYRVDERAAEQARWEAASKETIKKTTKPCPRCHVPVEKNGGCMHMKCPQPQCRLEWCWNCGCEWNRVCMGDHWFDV
An excerpt:
(§1) The following 96-well sample prep protocol was used for sample preparation.

The target of a further test is T2, UniProt A0AVI4 (Homo sapiens, UniProt A0AVI4).
T2 construct: 200 μL of lysate containing 5 mg/ml proteome was treated with 2 μL of 100× compound stock; endogenous in cells
T2 sequence (A0AVI4 1-362): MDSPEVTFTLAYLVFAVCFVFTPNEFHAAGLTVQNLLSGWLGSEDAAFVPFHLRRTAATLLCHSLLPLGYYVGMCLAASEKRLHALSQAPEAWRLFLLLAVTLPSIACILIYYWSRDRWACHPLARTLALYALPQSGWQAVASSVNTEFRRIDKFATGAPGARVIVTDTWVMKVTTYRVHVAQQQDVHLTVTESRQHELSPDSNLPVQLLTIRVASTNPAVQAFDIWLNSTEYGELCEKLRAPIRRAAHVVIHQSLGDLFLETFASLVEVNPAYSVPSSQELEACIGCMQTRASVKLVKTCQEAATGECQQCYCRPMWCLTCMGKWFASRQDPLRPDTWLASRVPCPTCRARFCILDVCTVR
Excerpt: as §1

The next test deals with T3, UniProt Q6ZN04 (Homo sapiens, UniProt Q6ZN04).
T3 construct: Cells were resuspended in cold PBS on ice and sonicated with a probe sonicator to achieve lysis; endogenous in cells
T3 sequence (Q6ZN04 1-569): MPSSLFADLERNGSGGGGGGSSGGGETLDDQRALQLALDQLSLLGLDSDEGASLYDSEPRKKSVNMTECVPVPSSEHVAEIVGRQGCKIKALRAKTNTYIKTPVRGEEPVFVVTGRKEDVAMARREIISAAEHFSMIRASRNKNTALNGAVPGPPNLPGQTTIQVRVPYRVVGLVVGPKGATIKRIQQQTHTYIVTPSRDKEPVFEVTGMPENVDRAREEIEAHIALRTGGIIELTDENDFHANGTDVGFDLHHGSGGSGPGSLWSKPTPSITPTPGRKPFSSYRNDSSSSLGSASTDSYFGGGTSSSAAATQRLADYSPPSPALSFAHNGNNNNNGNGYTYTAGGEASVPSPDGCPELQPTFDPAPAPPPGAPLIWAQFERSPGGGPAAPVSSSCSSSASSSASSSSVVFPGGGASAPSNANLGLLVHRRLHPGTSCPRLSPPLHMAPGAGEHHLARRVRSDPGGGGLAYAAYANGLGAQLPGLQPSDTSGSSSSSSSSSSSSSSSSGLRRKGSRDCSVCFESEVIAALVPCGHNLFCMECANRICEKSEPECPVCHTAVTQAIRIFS
Conditions: for inhibition at 500 µM: read-out: percent inhibition.
Excerpt: as §1

In a further test the target is T4, UniProt O14544 (Homo sapiens, UniProt O14544).
T4 construct: 200 μL of lysate containing 5 mg/ml proteome was treated with 2 μL of 100× compound stock; endogenous in cells
T4 sequence (O14544 1-535): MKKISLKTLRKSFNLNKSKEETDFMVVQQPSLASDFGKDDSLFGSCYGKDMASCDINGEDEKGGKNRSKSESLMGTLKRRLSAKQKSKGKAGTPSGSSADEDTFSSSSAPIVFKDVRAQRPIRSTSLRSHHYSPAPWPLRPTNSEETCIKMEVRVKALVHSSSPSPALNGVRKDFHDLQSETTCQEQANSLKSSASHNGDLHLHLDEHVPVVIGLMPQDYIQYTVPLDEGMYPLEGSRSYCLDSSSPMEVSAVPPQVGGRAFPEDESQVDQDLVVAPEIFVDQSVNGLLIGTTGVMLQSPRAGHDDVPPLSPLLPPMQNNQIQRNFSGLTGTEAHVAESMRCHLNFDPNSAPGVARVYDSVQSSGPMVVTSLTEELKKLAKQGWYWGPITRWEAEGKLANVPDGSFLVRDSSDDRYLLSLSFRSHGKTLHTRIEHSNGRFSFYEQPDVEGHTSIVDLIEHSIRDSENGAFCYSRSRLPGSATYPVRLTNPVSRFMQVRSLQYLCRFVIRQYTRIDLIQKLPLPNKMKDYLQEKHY
Conditions: for inhibition at 100 µM: read-out: percent_inhibition.
Excerpt: as §1

The target of a further test is T5, UniProt Q68DV7 (Homo sapiens, UniProt Q68DV7).
T5 construct: 200 μL of lysate containing 5 mg/ml proteome was treated with 2 μL of 100× compound stock; endogenous in cells
T5 sequence (Q68DV7 24-783): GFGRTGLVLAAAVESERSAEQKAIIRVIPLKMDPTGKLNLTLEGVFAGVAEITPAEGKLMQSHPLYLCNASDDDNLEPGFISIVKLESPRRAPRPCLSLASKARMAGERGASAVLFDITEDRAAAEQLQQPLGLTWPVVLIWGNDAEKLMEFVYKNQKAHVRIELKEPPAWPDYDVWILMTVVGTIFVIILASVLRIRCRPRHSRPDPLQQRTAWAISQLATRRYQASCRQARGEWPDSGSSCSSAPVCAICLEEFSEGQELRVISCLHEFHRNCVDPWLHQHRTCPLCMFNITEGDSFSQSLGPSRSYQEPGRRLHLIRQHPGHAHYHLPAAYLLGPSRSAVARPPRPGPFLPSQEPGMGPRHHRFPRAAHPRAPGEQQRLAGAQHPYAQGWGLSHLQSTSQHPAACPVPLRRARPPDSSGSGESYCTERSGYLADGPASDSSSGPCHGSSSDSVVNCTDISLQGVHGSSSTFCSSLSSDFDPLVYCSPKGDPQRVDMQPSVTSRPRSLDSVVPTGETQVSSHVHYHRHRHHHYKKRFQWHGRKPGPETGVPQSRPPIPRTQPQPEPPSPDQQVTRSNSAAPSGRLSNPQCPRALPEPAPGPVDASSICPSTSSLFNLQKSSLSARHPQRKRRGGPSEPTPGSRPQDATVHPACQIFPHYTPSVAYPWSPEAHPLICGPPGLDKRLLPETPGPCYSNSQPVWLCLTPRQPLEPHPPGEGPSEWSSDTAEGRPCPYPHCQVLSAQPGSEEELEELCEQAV
Excerpt: as §1

Setting [1] is: 500 uM, read-out: percent_inhibition.

For the molecule `COc1ccc2c(c1)CCCN2C(=O)CCl` [KB02], the inhibition at 500 µM on UniProt O60260 (read-out: KB02_500 uM_percent_inhibition) came out at 92%; on UniProt A0AVI4 (setting [1]), 44%; on UniProt Q6ZN04, 51%; at UniProt Q68DV7 (setting [1]), 41%. The inhibition at 100 µM was found to be 14% on UniProt A0AVI4 (read-out: percent_inhibition); 35% on UniProt O14544; 13% on UniProt Q68DV7 (100 uM, read-out: percent_inhibition). The same molecule displayed a percent_inhibition on UniProt Q68DV7 (100 uM) of 21%.
On to `C=CC(=O)N(c1ccccc1)c1ccc(Br)cc1` [KB05], for which the inhibition at 500 µM was 93% on UniProt O60260 (read-out: KB05_500 uM_percent_inhibition), 51% at UniProt Q6ZN04 and 42% on UniProt Q68DV7 (setting [1]). Moreover, the inhibition at 100 µM at UniProt A0AVI4 (read-out: percent_inhibition) was found to be 15%; on UniProt O14544 it was 59%. Further, the percent_inhibition on UniProt Q68DV7 (500 uM) is 40%.
In the case of `O=C(CCl)Nc1cc(C(F)(F)F)cc(C(F)(F)F)c1` [KBO3], the “KB03_500 uM_percent_inhibition” value on UniProt O60260 (500 uM) came to 91%. The percent_inhibition was 58% on UniProt A0AVI4 (500 uM), 83% at UniProt O14544 (100 uM) and 7% at UniProt Q68DV7 (100 uM). This molecule returned a percent inhibition on UniProt Q6ZN04 (500 uM) of 28%.
